Results from article PMC7112222, “Investigation of pyrimidine nucleoside analogues as chemical probes to assess compound effects on the proliferation of Trypanosoma cruzi intracellular parasites” (PLoS Neglected Tropical Diseases, 2020).
Where two headings read alike, the source gives them in different places.

System: T. cruzi intracellular amastigotes
Assay: Image-based assay of the number of T. cruzi infected cells (intracellular amastigotes in 3T3 host cells)
Type: cell-based, Trypanosoma cruzi
Conditions: for IC50: highest test concentration 183 μM
Description: Parasites and host cells were maintained as outlined previously. Briefly, host 3T3 fibroblasts (ATCC, CCL-92) were grown in RPMI medium (Thermo Fisher Scientific, USA) with no phenol red, supplemented with 10% FBS (Thermo Fisher Scientific, USA) and incubated at 37°C in 5% CO2. Host cells were harvested at 70% confluency and were split every 2–3 days in 175 cm^2 flasks. 3T3 cells were cultured up to passage 7 as contact inhibition was reduced or lost at higher passages. Prior to infection with T. cruzi trypomastigotes, host cells were seeded at 1.2 x 10^6 cells in 75 cm^2 or 4 x 10^5 cells in 25 cm^2 flasks and grown for 24 hours before parasite addition. Parasites were added at a multiplicity of infection (MOI) of 10:1 and incubated for 24 hours before non-infected trypomastigotes were washed off the host cell bed with PBS supplemented with Ca^2+ and Mg^2+ (Thermo Fisher Scientific, USA). Incubation was continued for a further 3 days, until tissue culture trypomastigotes began to egress from host cells. Egressed parasites were used for assays or to continue the infective life cycle in vitro.
The activity of the nucleoside analogues against T. cruzi intracellular amastigotes following 24, 48 hours exposure and compound wash off, was determined using image-based techniques as previously described. Briefly, 14-point serial dilutions of the compounds in 100% DMSO were prepared and then further diluted in sterile water at a ratio of 1:21 compound: water. Five microliters of the diluted compounds were added to wells of T. cruzi infected host cells, using a MiniTrak compound handling device (Perkin Elmer, USA) with final concentrations in the plate ranging from 183 μM to 4.6 x 10^−4 μM. All experiments were performed with two separate biological replicates.
IC50 values for inhibitory activity of both the nucleoside analogues tested as DNA probes and known inhibitors tested to determine their effect on replication of T. cruzi were calculated in GraphPad Prism 5, using sigmoidal dose response with variable slope. […] The p-value for difference in the % activity at Emax concentrations for compounds with known activity (EdU identified parasites, compared to Hoechst identified parasites) against T. cruzi was determined using GraphPad Prism 5, using an unpaired student’s t-test. […] The Emax for each compound was at least two data points in from the beginning of the plateau of activity in the IC50 curve, as previously described.

C#Cc1cn([C@H]2C[C@H](O)[C@@H](CO)O2)c(=O)[nH]c1=O [EdU, 5-ethynyl-2′-deoxy-uridine]
SI (selectivity index to T. cruzi intracellular amastigotes in relation to HEK293 cells) (48 hours exposure): 17
inhibition at 0.018 µM (Trypanosoma cruzi, 48 h, 0.018 μM, 48 hours, read-out: inhibition of T. cruzi growth): 63 ± 19%
inhibition at 0.037 µM (Trypanosoma cruzi, 48 h, 0.037 μM, 48 hours, read-out: inhibition of T. cruzi growth): 51 ± 13%
IC50 (Trypanosoma cruzi, 24 hours exposure, read-out: T. cruzi 24 IC50 value): 73 ± 49 nM
Emax (Trypanosoma cruzi, 24 hours exposure, read-out: T. cruzi 24 relative Emax (in brackets) (converted)): 83%
IC50 (Trypanosoma cruzi, 48 hours incubation, compound wash off, further 72 hours without compound, read-out: T. cruzi Wash off IC50 value): 420 ± 61 nM
Emax (Trypanosoma cruzi, 48 hours incubation, wash off, further 72 hours without compound, read-out: T. cruzi Wash off relative Emax (in brackets) (converted)): 99%
IC50 (Trypanosoma cruzi, 48 hours incubation, read-out: T. cruzi 48 IC50 value): 40 ± 25 nM
Emax (Trypanosoma cruzi, 48 hours incubation, read-out: T. cruzi 48 relative Emax (in brackets) (converted)): 98%
